B1: Nicotiana tabacum DRM methyltransferase domain (NtDRM MTase, residues 255-608) (domain or fragment, UniProt Q76KU6 255-608, looked up)
chain: ETIRLPKPMIGFGVPTEPLPAMVRRTLPEQAVGPPFFYYENVALAPKGVWDTISRFLYDIEPEFVDSKYFCAAARKRGYIHNLPVENRFPLFPLAPRTIHEALPLSKKWWPSWDPRTKLNCLQTAIGSAQLTNRIRKAVEDFDGEPPMRVQKFVLDQCRKWNLVWVGRNKVAPLEPDEVEMLLGFPKNHTRGGGISRTDRYKSLGNSFQVDTVAYHLSVLKDLFPGGINVLSLFSGIGGGEVALYRLGIPLNTVVSVEKSEVNRDIVRSWWEQTNQRGNLIHFNDVQQLNGDRLEQLIESFGGFDLVIGGSPCNNLAGSNRVSRDGLEGKESSLFYDYVRILDLVKSIMSRHKH

Tests used:
NtDRM MTase = target: T1, NtDRM MTase (Nicotiana tabacum, UniProt Q76KU6); assay: X-ray crystal structure, […] A; format: binding; conditions: cofactor site; co-crystallised at protein:sinefungin molar ratio 1:3
T1 sequence (Q76KU6 255-608): B1 chain

crystal structure = target: the molecule itself; assay: crystal structure

| Molecule | X-ray crystal structure, 2.8 A (NtDRM MTase) | stoichiometry N (crystal structure) |
| --- | --- | --- |
| Nc1ncnc2c1ncn2[C@@H]1O[C@H](C[C@@H](N)CC[C@H](N)C(=O)O)[C@@H](O)[C@H]1O [sinefungin] | NtDRM MTase dimer with each molecule bound to a cofactor analog sinefungin in the active site | – |
| B1 | – | 2 |

From PMC4123750 (Cell, 2014)
